Experiments:
HEK293T cells = test: Metabolic conversion and uptake of 2-hydroxylated fatty acids in HEK293T cell cultures; assay type: in vitro ADME, human
Method: To describe the metabolic conversion of DHA-H to HPA(C21:5 ω-3), as well as the conversion of LA-H to HDA (C17:2 ω-6), ALA-H to HTA ω-3 (C17:3 ω-3), GLA-H to HTA ω-6 (C17:3 ω-6), ARA-H to NTA (C19:4 ω-6), EPA-H to NPA (C19:5 ω-3), HEK293T (Human Embryonic Kidney Cells 293T) cell cultures were employed, which is an embryonic, non-tumoral cell line, widely used in human metabolism studies under physiological conditions.
HEK293T cells were cultured in Dulbecco's Modified Eagle's Medium (DMEM; Dubelcco's Modified Eagle's Medium, Biowest, France), supplemented with 10% FBS (Fetal Bovine Serum; Gibco, Thermo-Fisher), 2 mM L-Gln, 25 mM D(+)-glucose, 1 mM sodium pyruvate, and penicillin/streptomycin. Mouse neuroblastoma N2a cells were maintained in a 1:1 (v:v) mixture of DMEM and Opti-Mem (Gibco, Thermo-Fisher), supplemented with 5% FBS and penicillin/streptomycin. Both cell lines were incubated in an atmosphere of 5% CO2 at 37° C.
HEK293T cells were incubated with DHA-H and DHA at 10, 30 and 100 μM for 24 hours, and at 30 μM for 6, 48 and 72 hours. These cells were also incubated with LA-H, ALA-H, GLA-H, ARA-H and EPA-H at 100 μM for 24 hours. HEK293T cells were also incubated with oxythiamine in the presence of DHA-H under the same conditions, at final oxythiamine concentrations of 1 and 10 mM. The HEK293T cells were separated from the plates by pipettes with cold phosphate buffer saline solution (PBS). Cells were recovered by centrifugation (1000 xg, 10 min at 4° C.) and washed twice with cold PBS before being frozen at −80° C. To analyze DHA-H and DHA levels in the cell culture medium, 90 mm diameter plates were filled with 11 mL of complete cell culture medium containing 30 μM DHA-H or DHA in the presence or absence of attached HEK293T cells (5.10^5 cells/plate). The plates were incubated as described above and 1 ml aliquots of the plates were collected at 0, 6, 24, 48 and 72 hours. Aliquots of the cell culture medium were immediately centrifuged at 1000×g for 10 min at 4° C. to remove any cell suspension and the cell-free aliquots were stored at -20° C.
The cell lysates were subjected to ultrasound pulses (4 cycles, 10 s/cycle, 10 W) before lipid extraction. For brain analysis, the tissue of each animal was homogenized in cold PBS at 1:10 (p:v) in the presence of protease inhibitors (Roche), using a blade homogenizer (Polytron PT3100). Homogenates were ultrasounded, aliquots were made and stored at −80 ° C. Only one aliquot of each sample, containing about 8 mg protein/aliquot, was subjected to lipid extraction. Protein content before lipid extraction was determined by a modified Lowry method (Bio-rad DC Protein Assay).
Margaric acid (C17:0) was added to the samples subjected to lipid extraction as an internal standard and the lipids were extracted with chloroform:methanol (Eggers and Schwudke, 2016). Briefly, 0.75 volumes of the aqueous phase (which already contained the biological sample) were mixed with 2 volumes of chloroform and 1 volume of methanol. This mixture was vortexed for 1 minute and centrifuged at 1000×g for 10 minutes. The lower organic phase was collected and washed with 1 ml of PBS:methanol (1:1,v:v), and the resulting organic phase was dried under argon flow. The film containing the extracted lipids was transmethylated by incubation of the lipid mixture for 90 minutes at 100° C. in 3 ml of methanol:acetyl chloride (10:1, v:v), under an argon atmosphere (Christie, 1993). The resulting fatty acid methyl esters (FAMEs) were extracted with hexane, adding 3 ml of H2O and 1 ml of hexane to the transmethylation reaction, and vortexing the mixture thoroughly. After centrifugation at room temperature (1000×g for 10 min), the upper phase containing the FAMEs was collected and the remaining volume was washed twice with 1 ml of hexane.

A549 = test: IC50 in tumor cell cultures (cell survival, XTT / trypan blue); assay type: cell-based; settings: A549 human lung adenocarcinoma cell line
Method: (§1) Cell survival was analyzed in a Barker chamber using trypan blue vital exclusion staining (Scharlab) or by cell proliferation kit II (Roche). Briefly, the cells were seeded in 96-well plates at a density of 3 x 10^3 cells per well 24 h prior to treatment, and then cultured in the presence or absence of compounds of interest at the concentrations and for the times indicated in the figures. After different times, plaque viable cells were determined by the addition of XTT according to the manufacturers instructions. Cells were incubated at 37° C. in 5% CO2 until a constant color was developed and absorbance was recorded at 495 nm using a microplate reader with a reference wavelength of 650 nm (FLUOstar Omega, BMG LABTECH, Germany).
(§2) The anti-tumor activity of the different metabolites described in FIGS. 8 and 9 was determined by direct treatment with these molecules (HDA or C17:2 ω-6, HTA ω-3 or C17:3 ω-3, HTA ω-6 or C17:3 ω-6, NTA or C19:4 ω-6, NPA or C19:5 ω-3, and HPA or C21:5 ω-3) in tumor cell cultures, on which the IC50 value for each of these compounds was determined (Inhibitory Concentration 50: concentration of study compound that induces death of 50% of the tumor cell population).

MIA-PaCa 2 = test: as above; assay type: cell-based; settings: Homo sapiens; MIA-PaCa 2 pancreatic cancer cell line
Method: as §1, §2

CCC=CCC=CCC=CCC=CCC=CCC=CCC(O)C(=O)O (centres unmarked) [DHA-H, 2-hydroxy-drocosahexaenoic acid]
Levels in the culture medium in the absence of cell culture (HEK293T cells; 30 μM, up to 72 h, no cells): remained constant over time

CC/C=C\C/C=C\C/C=C\C/C=C\C/C=C\CCCCC(=O)O [HPA, (6Z,9Z,12Z,15Z,18Z)-heneicosa-6,9,12,15,18-pentaenoic acid]
IC50 (A549): 228 ± 3 µM
IC50 (MIA-PaCa 2): 58 ± 17 µM
Intracellular HPA levels compared to DHA-H levels (HEK293T cells; HEK293T under DHA-H, from 24 hours of incubation and 30 μM): significantly higher than those of the prodrug
Formation of the metabolite from its 2-hydroxylated prodrug in the presence of oxythiamine (HEK293T cells; HEK293T, prodrug 100 μM, 24 h, 10 mM oxythiamine): inhibited

— patent US20230097753A1, “ALPHA-HYDROXYLATED FATTY-ACID METABOLITES, MEDICAL USES AND USE AS BIOMARKERS” (UNIVERSITAT DE LES ILLES BALEARS, priority 2020, published 2023)
